This is an account of results in patent US5436246A, “Serotonin receptor agents” (priority 1993, dated 1995).

One experiment deals with T1, 5HT1A receptor (Rattus norvegicus, UniProt P19327).
T1 sequence (P19327 1-422): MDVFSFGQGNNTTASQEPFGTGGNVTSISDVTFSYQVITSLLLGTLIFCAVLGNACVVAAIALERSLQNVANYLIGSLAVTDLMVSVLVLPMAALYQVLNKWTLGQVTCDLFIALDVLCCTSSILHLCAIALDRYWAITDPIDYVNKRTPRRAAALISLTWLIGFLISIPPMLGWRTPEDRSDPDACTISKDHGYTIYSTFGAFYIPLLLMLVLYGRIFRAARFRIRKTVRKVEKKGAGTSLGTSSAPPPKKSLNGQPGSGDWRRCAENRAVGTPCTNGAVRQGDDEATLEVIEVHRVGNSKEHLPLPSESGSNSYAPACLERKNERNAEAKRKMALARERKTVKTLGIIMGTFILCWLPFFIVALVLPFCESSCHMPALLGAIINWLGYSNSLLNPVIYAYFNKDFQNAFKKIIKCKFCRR
Briefly: 5HT1A receptor binding affinity (procedure of Gozlan et al.). As to the method: In the following examples, the compounds binding affinity for both the 5HT1A receptor and 5HT1D receptors is reported. The compounds affinity for the 5HT1D site was determined by the binding procedure of Peroutka et al as reported in European Journal of Pharmacology, Vol. 163 at pages 133-166 (1989). The compounds affinity for the 5HT1A receptor was determined by the procedure of Gozlan et al., as reported in Nature, Volume 305, at pages 140-142 (1983). Where multiple determinations of the binding affinity have been performed, the average is given followed by the number of determinations in parentheses. Also, the PA2 value for the saphenous vein preparation as described in this application is given, followed by the intrinsic (agonist) activity in parentheses, expressed as a percentage. [drawing 10] […]

The target of another experiment is T2, 5HT1D receptor (Bos taurus, UniProt F1MGM3).
T2 construct: from tissue
The experiment is described as follows: 5HT1D receptor binding affinity (procedure of Peroutka et al.).

Another experiment addresses 5-HT1D receptors (Canis lupus familiaris, UniProt P79250). On the set-up: species or system dog (canine). The following applies: for Emax: dog, read-out: intrinsic (agonist) activity, saphenous vein preparation. Here is the method: In the following examples, the compounds binding affinity for both the 5HT1A receptor and 5HT1D receptors is reported. The compounds affinity for the 5HT1D site was determined by the binding procedure of Peroutka et al as reported in European Journal of Pharmacology, Vol. 163 at pages 133-166 (1989). The compounds affinity for the 5HT1A receptor was determined by the procedure of Gozlan et al., as reported in Nature, Volume 305, at pages 140-142 (1983). Where multiple determinations of the binding affinity have been performed, the average is given followed by the number of determinations in parentheses. Also, the PA2 value for the saphenous vein preparation as described in this application is given, followed by the intrinsic (agonist) activity in parentheses, expressed as a percentage. [drawing 10]
We have used canine saphenous vein for studying 5-HT1D receptors which is similar, although not totally identical, to human coronary 5-HT1D receptors (see Humphrey, P. P. A., Feniuk, W., Perren, M. J., Connor, H. E., Oxford, A. W., Coates, I. H. and Butina, D.: GR43175, a selective agonist for the 5-HT1 -like receptor in dog isolated saphenous vein, Br. J. Pharmacol. 94:1123-1132, 1988; Kaumann, A. J.: Human heart 5-HT receptors, Second international symposium on serotonin, from cell biology to pharmacology and therapeutics, Houston, Sep. 15-18, 1992).
Mongrel dogs weighing 12-18 kg were killed by an intravenous injection of an overdose of sodium pentobarbitol. Saphenous veins were isolated, removed, cleaned of surrounding connective tissue, and cut into helical strips in a dish containing Krebs-Henseleit solution with the following composition in mM: NaCl, 110.0; KCl, 4.8; CaCl2, 2.5; KH2 PO4, 1.2; EDTA(NaEDTA), 0.027; and was constantly bubbled with 95% O2 -5% CO2. Unless otherwise specified, the endothelium of the […] was removed by rubbing with a metal rod. The intactness or absence of functional endothelium was checked by the presence or absence of a relaxant effect of acetycholine (10^-5 M) in phenylephrine-contracted tissues (see Furchgott, R. F. and Zawadzki, J. V.: The obligatory role of endothelial cells in the relaxtion of arterial smooth muscle by acetycholine, Nature 288:373-376, 1980). Each muscle strip (3×30 mm) was set up in a tissue bath at 37° C. and loaded with 2 gram tension. Contractility of the tissues was measured isometrically with a Grass FT03 force-displacement transducer and recorded on a Strip chart recorder. The tissues were allowed to stabilize for 2 hours before the experiment was started, during which time they were washed repeatedly. Tissues were contracted with 3.162×10^-6 M phenylephrine and 40 mM KCl, which produced 60-70% of their maximum contractile responses, to condition the tissue. 5-HT dose response experiment was conducted. Test compounds were then incubated with the tissue before a second 5-HT dose response experiment was performed. Data are expressed as the pA2 value, the negative logarithm of the molar concentration of antagonist which produced a 2 fold shift in ED50 values of 5-HT dose response curves (see Van Rossum, J. M.: Cumulative dose-response curve: Technique for the making of dose-response curves in isolated organs and the evaluation of drug parameters, Arch. Int. Pharmacodyn. Ther. 143:299-330, 1963).

The mark [1] stands for this setting: negative log molar concentration of antagonist producing 2 fold shift in ED50 of 5-HT dose response curves, read-out: pA2 (blocking of 5-HT1-like-mediated contraction in canine saphenous vein) (converted).
[2] abbreviates: average of multiple determinations where number in parentheses is given, read-out: IC50 (5HT1A Binding Affinity).
Setting [3] is: average of multiple determinations where number in parentheses is given, read-out: IC50 (5HT1D Binding Affinity).
The mark [4] stands for this setting: canine saphenous vein, printed in parentheses after pA2.

Structures can show the parent of a compound that is named as a salt. Where two headings read alike, the source gives them in different places.

Broadly, the IC50 is the midpoint of a concentration-inhibition curve.

T2 sequence (F1MGM3 1-403): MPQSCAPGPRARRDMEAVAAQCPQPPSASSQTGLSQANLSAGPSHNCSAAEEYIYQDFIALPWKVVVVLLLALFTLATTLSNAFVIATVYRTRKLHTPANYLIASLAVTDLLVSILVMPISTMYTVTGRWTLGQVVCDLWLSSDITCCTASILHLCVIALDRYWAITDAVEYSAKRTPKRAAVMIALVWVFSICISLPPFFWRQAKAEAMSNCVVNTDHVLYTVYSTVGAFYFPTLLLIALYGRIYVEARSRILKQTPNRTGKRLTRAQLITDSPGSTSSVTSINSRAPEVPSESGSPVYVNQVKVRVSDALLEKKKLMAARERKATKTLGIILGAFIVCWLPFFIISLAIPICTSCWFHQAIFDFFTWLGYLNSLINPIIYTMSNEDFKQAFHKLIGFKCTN
Chain of 5-HT1D receptors (P79250 whole entry): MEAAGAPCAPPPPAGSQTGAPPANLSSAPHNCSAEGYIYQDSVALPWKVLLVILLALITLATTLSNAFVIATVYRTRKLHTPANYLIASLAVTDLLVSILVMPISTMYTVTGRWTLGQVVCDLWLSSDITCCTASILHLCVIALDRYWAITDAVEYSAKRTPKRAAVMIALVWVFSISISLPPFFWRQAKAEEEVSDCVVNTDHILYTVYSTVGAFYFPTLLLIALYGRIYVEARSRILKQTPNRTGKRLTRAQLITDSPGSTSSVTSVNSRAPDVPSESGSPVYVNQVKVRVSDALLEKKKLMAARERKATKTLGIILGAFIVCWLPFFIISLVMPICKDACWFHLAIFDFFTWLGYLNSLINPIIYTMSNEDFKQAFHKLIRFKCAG
Description for 5HT1D receptor: The compounds affinity for the 5HT1D site was determined by the binding procedure of Peroutka et al as reported in European Journal of Pharmacology, Vol. 163 at pages 133-166 (1989). […] Where multiple determinations of the binding affinity have been performed, the average is given followed by the number of determinations in parentheses.

With `CNC(=O)c1cc2c(N3CCN(CCc4ccccc4)CC3)cccc2s1` [Example 10, 4-[4-(2-phenylethyl)-1-piperazinyl]-benzo[b]thiophene-2-(N-methyl)-carboxamide monohydrochloride], the IC50 at 5HT1A receptor and on 5HT1D receptor was 1 nM each time. The Emax at 5-HT1D receptors was found to be 25%. For the same compound, the Kb at 5-HT1D receptors (setting [1]) is 0.0251 nM.
On to `CN(C)C(=O)c1cc2c(N3CCN(CCc4ccccc4)CC3)cccc2s1` [Example 11, 4-[4-(2-phenylethyl)-1-piperazinyl]-benzo[b]thiophene-2-(N,N-dimethyl)-carboxamide monohydrochloride], for which the IC50 on 5HT1A receptor (setting [2]) came out at 2.3 nM; at 5HT1D receptor (setting [3]), 3 nM. For the same compound, on 5-HT1D receptors (setting [4]), the Emax amounted to 2%. For the same compound, the Kb at 5-HT1D receptors (setting [1]) is 0.977 nM.
`O=C(Nc1ccccc1)c1cc2c(N3CCN(CCc4ccccc4)CC3)cccc2s1` [Example 12, 4-[4-(2-phenylethyl)-1-piperazinyl]-benzo[b]thiophene2-(N-phenyl)-carboxamide monohydrochloride]: the IC50 is 85 nM at 5HT1A receptor (setting [2]) and 220 nM on 5HT1D receptor (setting [3]). Besides, at 5-HT1D receptors (setting [4]), the Emax was 0%. Moreover, on 5-HT1D receptors (setting [1]), the Kb is 18.2 nM.
Taken in the same sequence, the figures for `O=C(NCc1ccccc1)c1cc2c(N3CCN(CCc4ccccc4)CC3)cccc2s1` [Example 13, 4-[4-(2-phenylethyl)-1-piperazinyl]-benzo[b]thiophene-2-(N-phenylmethyl)-carboxamide monohydrochloride] were 27 nM, 31 nM, 0% and 1.74 nM.
As for `NC(=O)c1cc2c(N3CCN(CCCc4ccccc4)CC3)cccc2s1` [Example 17, 4-[4-(3-phenylpropyl)-1-piperazinyl]-benzo[b]thiophene-2-carboxamide monohydrochloride], the IC50 was determined as 1 nM at 5HT1A receptor (setting [2]) and 4.5 nM at 5HT1D receptor (setting [3]). Besides, the Kb on 5-HT1D receptors (setting [1]) was 16.6 nM.
On the same counts, the results for `CCOC(=O)c1cc2c(N3CCN(CCc4ccc(Cl)cc4)CC3)cccc2s1` [Example 18, ethyl-4-[4-[2-(4-chlorophenyl)ethyl]-1-piperazinyl]-benzo[b]thiophene-2-carboxylate monohydrochloride] are 53 nM, 411 nM and 309 nM.
In the case of `N#Cc1cc2c(N3CCN(CCc4ccc(Cl)cc4)CC3)cccc2s1` [Example 20, 4-[4-[2-(4-chlorophenyl)ethyl]-1-piperazinyl]-benzo[b]thiophene-2-nitrile monohydrochloride], at 5HT1A receptor, the half-inhibitory concentration (IC50) amounted to 13 nM. At 5HT1D receptor, the IC50 was 31 nM. Further, at 5-HT1D receptors, the Kb was 42.7 nM and the Emax was 34%.
On to `CCOC(=O)c1cc2c(N3CCN(CCc4ccc(F)cc4)CC3)cccc2s1` [Example 22, ethyl-4-[4-[2-(4-fluorophenyl)ethyl]-1-piperazinyl]-benzo[b]thiophene-2-carboxylate monohydrochloride], for which the values for the IC50 on 5HT1A receptor (setting [2]) and at 5HT1D receptor (setting [3]) were 7.4 nM and 120 nM, respectively. Besides, at 5-HT1D receptors, the Emax worked out at 0%. The Kb at 5-HT1D receptors (setting [1]) was 29.5 nM.
Compound `N#Cc1cc2c(N3CCN(CCc4ccc(F)cc4)CC3)cccc2s1` [Example 24, 4-[4-[2-(4-fluorophenyl)ethyl]-1-piperazinyl]-benzo[b]thiophene-2-nitrile monohydrochloride] came in with an IC50 at 5HT1A receptor of 10 nM. At 5HT1D receptor, this compound gave an IC50 of 21 nM. Also, on 5-HT1D receptors, the Kb is 6.76 nM and the Emax came out at 9%.
On to `CCCN1CCN(c2cccc3sc(C(=O)OCC)cc23)CC1` [Example 34, Ethyl 4-[(4-propyl)-1-piperazinyl]benzo[b]thiophene-2-carboxylate hydrochloride], for which the figures for the IC50 on 5HT1A receptor (setting [2]) and on 5HT1D receptor (setting [3]) were 104 nM and 416 nM, respectively. The Emax at 5-HT1D receptors is 12%. The Kb at 5-HT1D receptors (setting [1]) was 166 nM.
For `COCc1cc2c(N3CCN(CCc4ccccc4)CC3)cccc2s1` [Example 37, 4-[4-(2-phenylethyl)-1-piperazinyl]-benzo[b]thiophene-2-(O-methyl)-methanol hydrochloride], the IC50 came out at 5 nM on 5HT1A receptor and 9 nM on 5HT1D receptor. On 5-HT1D receptors, the Emax turned out to be 0%. In addition, the Kb on 5-HT1D receptors (setting [1]) was 9.33 nM.
For `CON(C)C(=O)c1cc2c(N3CCN(CCc4ccccc4)CC3)cccc2s1` [Example 40, 4-[4-(2-phenylethyl)-1-piperazinyl]-benzo[b]thiophene-2-(N-methyl-N-methoxy)-carboxamide hydrochloride], the IC50 came out at 2.4 nM on 5HT1A receptor (setting [2]) and 16 nM on 5HT1D receptor (setting [3]). In addition, the Emax at 5-HT1D receptors (setting [4]) amounted to 3%. The Kb on 5-HT1D receptors (setting [1]) was 3.16 nM.
As to `CC(C)(O)c1cc2c(N3CCN(CCc4ccccc4)CC3)cccc2s1` [Example 41, 2-[4-[4-(2-phenylethyl)-1-piperazinyl]benzo[b]thiophene-2-]-(2-propanol) hydrochloride hemihydrate], the figures for the IC50 on 5HT1A receptor and at 5HT1D receptor were 4 nM and 16 nM, respectively. Moreover, the Emax on 5-HT1D receptors is 16%. Besides, the Kb on 5-HT1D receptors (setting [1]) is 36.3 nM.
As for `CC(=O)c1cc2c(N3CCN(CCc4ccccc4)CC3)cccc2s1` [Example 42, 1-[4-(4-phenethyl-piperazin-1-yl)-benzo[b]thiophen-2-yl]ethanone hydrochloride], the IC50 on 5HT1D receptor stood at 22 nM. Moreover, at 5-HT1D receptors, the Kb was 13.5 nM and the Emax was found to be 1%.
Take `O=C(c1cc2c(N3CCN(CCc4ccccc4)CC3)cccc2s1)N1CCCCC1` [Example 56, [4-(4-phenethyl-piperazin-1-yl)-benzo[b]thiophen-2-yl]-piperidin-1-yl methanone hydrochloride]: the IC50 on 5HT1D receptor (setting [3]) worked out at 135 nM. Moreover, the Emax on 5-HT1D receptors was 2%. Besides, on 5-HT1D receptors (setting [1]), the Kb is 112 nM.
Taken in the same sequence, the figures for `O=C(c1cc2c(N3CCN(CCc4ccccc4)CC3)cccc2s1)N1CCCC1` [Example 57, [4-(4-phenethyl-piperazin-1-yl)-benzo[b]thiophen-2-yl]-pyrrolidin-1-yl methanone hydrochloride] were 25 nM, 0% and 4.27 nM.
With `OCC=Cc1cc2c(N3CCN(CCc4ccccc4)CC3)cccc2s1` [Example 59, 3-[4-(4-phenethyl-piperazin-1-yl)-benzo[b]thiophen-2-yl]-prop-2-en-1-ol hydrochloride], on 5-HT1D receptors, the Kb is 0.55 nM and the Emax was 0%.
